According to PubChem BioAssay AID179 (DTP/NCI, 2004):
Activity calls are given as the source filed them.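 Rule for the calls: active = compounds giving half or more protection of infected cells from virus-caused growth loss, again on retest; inactive = the rest.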

System: CEM cells HIV-1 protection, formazan growth assay
Experiment: NCI AIDS Antiviral Assay
Conditions: for IC50: measured here: growth of uninfected CEM cells
How it was run: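 Human CEM cells, uninfected and HIV-1-infected, received five drug concentrations, and growth was read by soluble formazan assay. Compounds giving at least 50% protection were retested; reproducible 100% protection defined confirmed active.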

SMILES | outcome | EC50 [µM] | IC50 [µM]
CCCCCCC(C)CCCCCCCCCCC(=O)O (stereo not given) | inactive | – | –
COC(OC)C1OC(CO)C(n2ccc(N)nc2=O)C1O (stereo not given) | – | > 200 | > 200
CC(NC(=O)OC(C)(C)C)C(=O)NC(Cc1ccccc1)C(=O)NCC(=O)Oc1c(Cl)c(Cl)c(Cl)c(Cl)c1Cl (stereo not given) | – | > 200 | 4.27
CC(=O)CC(=O)ON(C)C(C)=O | – | > 1450 | > 1450
CN(C)CC1CCCCCCCCCC(CN(C)C)C1=O (stereo not given) | – | > 5.89 | > 5.89
N/C(=N\N=C/c1ccc(OCc2ccccc2)cc1)NO | inactive | – | –
CC(C)NC(=O)OCc1c(COC(=O)NC(C)C)n(C)c2c1ccc1ccccc12 | – | > 174 | 0.0813
CCn1c(SCC(=O)N/N=C2\SCC(=O)N2c2ccc(C)cc2)nc2ccccc2c1=O | – | > 200 | 66.1
O=C(O)c1ccccc1/C=C1\Cc2ccc3c(c2C1=O)CCCC3 | – | > 200 | 41.7
CC(=O)Nc1ccc(SS(=O)(=O)c2ccc(NC(C)=O)cc2)cc1 | – | > 490 | 204
CN(CCS(=O)(=O)N1C(=O)C2CCCN2C(=O)[C@@H]1Cc1ccccc1)C(=O)OCc1ccccc1 (stereo not given in full) | – | > 50.1 | > 50.1
Fc1ccc(NC(=S)N/N=C\c2c(Cl)cccc2Cl)cc1 | – | > 275 | > 275
Oc1ccc(-c2nc(-c3ccc(F)cc3)c(-c3ccc4ccccc4n3)[nH]2)cc1 | – | > 200 | 21.4
O/N=C1/CC2(N3CCOCC3)C3CC/C(=N\O)C2CC1(Cc1ccccc1)C3 (stereo not given) | – | > 200 | 123
COc1ccc2[nH]c(S(=O)(=O)N3CC(CCl)c4ccc(N)cc43)cc2c1 (stereo not given) | – | > 0.2 | 0.102
CC(=O)/C(=C/c1cccc(F)c1)c1ccccc1 | – | > 56.2 | > 56.2
CCCCCCCCCCCCC(CC)CCCCC(=O)O (stereo not given) | inactive | – | –
O=c1oc2c(O)c(O)cc3c(=O)oc4c(O)c(O)cc1c4c23 | – | > 66.1 | 42.7
CC1C(=O)CC[C@@]2(C)C(=O)CCCC12O (stereo not given in full) | inactive | – | –
O=c1cc(-c2ccc(Cl)cc2)oc2cc(OCCCOc3ccc4c(=O)cc(-c5ccc(Cl)cc5)oc4c3)ccc12 | – | > 0.646 | > 0.646
N#CC1(C#N)C(c2ccccc2)C=CC(c2ccc([N+](=O)[O-])cc2)C1(C#N)C#N (stereo not given) | – | > 200 | 3.55
CN1CCCC(C#N)(c2ccccc2)CC1 (stereo not given) | inactive | – | –

SMILES | outcome | EC50 [µM] | IC50 [µM]
CC1=N[C@](C)(C2CC3C=CC2C3=O)COC1=O (stereo not given in full) | – | > 562 | > 562
C1SSCC2=C1CSSC2 | – | > 13.2 | > 13.2
CC(=O)OC(OC(C)=O)c1ccc2ccc3cccc4ccc1c2c34 | – | > 200 | 34.7
O=P1(N2CCCCC2)OCC2(CO1)COP(=O)(N1CCCCC1)OC2 (stereo not given) | – | > 200 | > 200
C=CCNC(=S)/N=C/C(C(=O)Nc1ccccc1OC)=C(\C)O | inactive | – | –
C=C1CC(CN2CCC(=O)NC2=O)(c2ccccc2)OC1=O (stereo not given) | – | > 200 | 1.48
CC1(C)CC(O)C2=C(O1)C(=O)c1ncccc1C2=O (stereo not given) | inactive | – | –
CC1=C(c2cc(C(=O)Nc3cccc(C(F)(F)F)c3)ncn2)Sc2ccccc2N1 | – | > 83.2 | > 83.2
NC(CCCC(N)P(=O)(O)c1ccccc1)P(=O)(O)c1ccccc1 (stereo not given) | – | > 661 | > 661
COC(=O)C(=O)C(C(=O)C=C(C)C)C(=O)C(=O)Nc1cc(C(F)(F)F)ccc1Cl (stereo not given) | – | > 83.2 | > 83.2
C/C(=N\NS(=O)(=O)c1ccccc1)c1ccc(Cl)c(Cl)c1 | inactive | – | –
COc1cc(O)c2cc1Oc1ccc(cc1)CC1=NCCc3cc(OC)c(cc31)Oc1c(OC)c(OC)c(OC)c3c1[C@H](C2)N(C)CC3 | inactive | – | –
O=C1OC(O)C(Oc2c(Cl)cccc2Cl)=C1Cl (stereo not given) | – | > 40.7 | 19.1
Cn1c(=O)nc2n(-c3ccc(F)c(F)c3)c3ccccc3nc-2c1=O | inactive | – | –
O=C(Nc1ccccc1F)c1c(O)nc2sccn2c1=O | – | > 200 | 51.3
COC(=O)NC1C(C)OC(OC2C/C=C(/C)C3C=CC4C(OC5CC(OC6CCC(OC7CC(O)C(OC8CCC(O)C(C)O8)C(C)O7)C(C)O6)C(OC(C)=O)C(C)O5)C(C)CC(C)C4C3(C)/C(O)=C3/C(=O)OC4(CC(C=O)=CC(O)C4/C=C\2C)C3=O)CC1(C)[N+](=O)[O-] (stereo not given) | – | > 186 | 0.191
C=CCCC12CCCC(=O)C1Sc1ccc3ccccc3c12 (stereo not given) | – | > 12.3 | > 12.3
Cc1cn(CC2COC(CO)O2)c(=O)[nH]c1=O (stereo not given) | – | > 1020 | > 1020
COc1ccc(C(CC(=O)C(C)(C)CN2CCCCC2)SCCS(=O)(=O)O)cc1 (stereo not given) | – | > 200 | 13.2
O=c1oc2ccccc2c(O)c1C(c1ccc2c(c1)OCO2)N1CCOCC1 (stereo not given) | – | > 200 | > 100
CNC(=O)N1N[C@H](c2ccccc2)[C@@H]1c1ccccc1 | – | > 200 | 42.7
CCC1(CC=C(C)C)Oc2ccccc2-n2cccc2C1=O (stereo not given) | active | – | –

SMILES | outcome | EC50 [µM] | IC50 [µM]
COC1/C=C/OC2(C)Oc3c(C)c(O)c4c(O)c(c(/C=N/N5C(C)CN(Cc6cccc(O)c6)CC5C)c(O)c4c3C2=O)NC(=O)/C(C)=C\C=C\C(C)C(O)C(C)C(O)C(C)C(OC(C)=O)C1C (stereo not given) | – | > 200 | 6.46
[Ni+2].c1nnc(N2CNCCNCN(c3nnc[n-]3)CNCCNC2)[n-]1 | – | > 100 | 97.7
O=c1[nH]c2nccnc2c2c([N+](=O)[O-])cccc12 | – | > 200 | > 200
CC1C(=O)c2cc3c(cc2CCN(C)Cc2c1ccc1c2OCO1)OCO3 (stereo not given) | – | > 70.8 | > 70.8
CCCC1(c2ccccc2)Oc2ccccc2-n2cccc2C1=O (stereo not given) | – | > 200 | 40.7
Cc1cc(C)c(C(=O)OC(c2ccccc2)C(c2ccccc2)N2CCOCC2)c(C)c1 (stereo not given) | inactive | – | –
O=C(NNC(=O)c1ccc([N+](=O)[O-])cc1)c1ccc([N+](=O)[O-])cc1 | – | > 200 | > 200
O=S(=O)(c1ccccc1)[C@H]1[C@@H]2O[C@@H]2C[C@@H]1O | – | > 1050 | 55
O=C1N=NC(Cl)c2ccccc21 (stereo not given) | – | > 28.8 | > 28.8
COC(=O)C1(C)OC(C)=NC1(C(=O)OC)C(=O)OC (stereo not given) | – | > 200 | > 200
O=C(O)c1cc(N=Nc2ccc(CCc3ccc(N=Nc4cc(C(=O)O)c(O)cc4O)cc3S(=O)(=O)O)c(S(=O)(=O)O)c2)c(O)cc1O | – | 70.8 | 135
Cc1c(C)c(C)c(Cn2[nH]c(=O)n(C)c2=O)c(C)c1C | – | > 200 | > 200
COC(=O)c1ccccc1/C=C1\Cc2cc3c(cc2C1=O)CCC3 | – | > 200 | 45.7
CCOC(=O)Nc1[nH]cc(-c2ccccc2)c1C#N | – | > 200 | > 200
S=P1(Oc2ccccc2)OCCO1 | – | > 617 | > 617
NCCN.NCCN.O=C([O-])CCl.O=C([O-])CCl.[Co+3].[O-][Cl+3]([O-])([O-])[O-] | inactive | – | –
O=C1C2C3C=CC(CC3)C2C(=O)C2C3C=CC(C3)C12 (stereo not given) | – | > 200 | 129
CN1CCN(C2=NCCO2)CC1 | – | > 200 | > 200
O=C(O)CCSCc1cc(C(=O)Nc2ccc(/C=C/c3ccc(NC(=O)c4cc(CSCCC(=O)O)c5ccccc5c4O)cc3S(=O)(=O)O)c(S(=O)(=O)O)c2)c(O)c2ccccc12 | – | 83.2 | 162
O=C(O)CCC(NC(=O)c1ccc(Oc2nc3ccccc3nc2C(=O)O)cc1)C(=O)O (stereo not given) | – | > 200 | > 200
Cc1cc2c(=O)cc(-c3ccc(C(F)(F)F)cc3)oc2c(C(=O)O)c1C | inactive | – | –
[N-]=[N+]=C1N=CN=C1c1ncn[nH]1 | – | > 200 | 4.07

SMILES | outcome | EC50 [µM] | IC50 [µM]
CCSc1cc(=O)n(C)c(=O)n1C | inactive | – | –
Cn1cnc2[nH]c(=O)n(OS(=O)(=O)c3ccccc3)c(=O)c21 | – | > 195 | 151
CC1CC2OC(=O)C3CCCC(=C23)[C@@]12C[C@@H](c1ccoc1)OC2=O (stereo not given in full) | – | > 550 | 269
Cc1c(NC(=S)NC(=O)c2ccc([N+](=O)[O-])cc2)c(=O)n(-c2ccccc2)n1C | inactive | – | –
O=C(CCc1nnc2s/c(=C\c3ccc(Cl)c(Cl)c3)c(=O)n12)Nc1ccc(Cl)c(Cl)c1 | – | > 13.2 | > 13.2
O=C(O)CN1C(=O)c2cccc3cccc(c23)C1=O | – | > 200 | > 200
N#CC12C(=O)N3C(=NC(c4ccco4)NC3c3ccco3)C1(C#N)C(c1ccco1)NC1=C2CCCC1 (stereo not given) | – | > 200 | > 200
CC(C)SC(NC(=O)C1C(C)(C)CCC1(C)C)C(=O)O (stereo not given) | – | > 200 | > 200
CCOC(=O)Cc1csc(N/N=c2/sc(C=Nc3ccccc3)c(O)n2CC)n1 | – | > 200 | > 200
CCOC(=O)[C]1([Bi]([CH3])[CH3])N=NC(C(=O)OC)=C1C(=O)OC (stereo not given) | – | 17.4 | 26.3
CCN(CC)CC(C(=O)Nc1c(C)cccc1C)/C(C)=N\NC(=O)C[N+](C)(C)C (stereo not given) | – | > 40.7 | > 40.7
CCc1cccc(C(C)CC)c1N=C(NC(=O)c1ccccc1C(=O)NC(=Nc1c(CC)cccc1C(C)CC)SC)SC (stereo not given) | – | > 56.2 | > 56.2
Cc1ccc(C2=Nc3ccccc3SC(c3cccc([N+](=O)[O-])c3)C2)cc1 (stereo not given) | – | > 33.9 | 6.17
OC(CBr)C(O)C(O)C(O)CBr (stereo not given) | inactive | – | –
CC(=O)NNc1nc(C)c(C(/C=C/c2ccc(Cl)cc2)=N\NS(=O)(=O)c2ccc(C)cc2)s1 | – | > 2.88 | > 2.88
CCOC(CNc1nn2c(C)nnc2s1)OCC | – | > 200 | > 200
O=C1/C(=C/c2ccccc2)CCC/C1=C\c1ccc(O)c(CN2CCCCC2)c1 | – | > 200 | 1.17
O=C1N=C(C=c2ccc(=Cc3[nH]c(=O)n(CN4CCCCC4)c3O)cc2)C(=O)N1CN1CCCCC1 | – | > 100 | 22.4
O=C1/C(=C\c2cccc(Oc3ccccc3)c2)SC(c2ccccc2)N1c1cc(Cl)ccc1Cl (stereo not given) | – | > 200 | 9.33
O=C(O)c1nc2ccccc2n2cccc12 | – | > 200 | > 200
